Legend:
[1] = test system: murine model for postoperative ileus (gastroparesis after intestinal manipulation); assay: Gastric emptying by scintigraphic imaging after intestinal manipulation (murine model for postoperative ileus); type: in vivo, mice; conditions: for gastric emptying rate k / half-emptying time: MAb pre-operative, hexamethonium or guanethidine postoperative injection
[2] = test system: MPO-containing leukocytes in ileal muscularis; assay: Leukocyte recruitment / MPO activity in ileal muscularis after intestinal manipulation; type: in vivo, mice
[3] = test system: gastric emptying in control mice; assay: Gastric emptying in control mice given the anesthetics

With `CN1CCC(=C2c3ccccc3CC(=O)c3sccc32)CC1` [ketotifen] the development of gastroparesis ([1]; 24 hours after IM) was “could be prevented” and the “decrease of postoperative recruitment of MPO-containing leukocytes compared to vehicle” value ([2]; 24 hours after IM, ketotifen 10 mg/kg p.o. for five days prior to surgery) was 45%.

`C[N+](C)(C)CCCCCC[N+](C)(C)C` [hexamethonium] was tested, and the gastroparesis ([1]; 6 hours after IM) was “reversed the gastroparesis partially”, the “gastric emptying rate k” value ([1]; 6 hours after IM) was “normalized” and the half-emptying time ([1]; 6 hours after IM) was “normalized”. The development of gastroparesis ([1]; 24 hours after IM) was “completely”, the “gastric emptying rate k” value ([1]; 24 hours after IM) was “normalized” and the half-emptying time ([1]; 24 hours after IM) was “normalized”. For the same compound, the development of gastroparesis ([1]; mice, time not stated) was “capable of preventing the development of gastroparesis”, the “leukocyte influx / recruitment in ileal muscularis (MPO-staining cells)” value ([2]; 24 hours after IM) was “did not affect” and the “amount of MPO activity in muscularis homogenates” value ([2]; 24 hours after surgery) was “did not affect”.

`Cc1cccc(C)c1N=C1NCCCS1` [xylazine] was tested, and the gastric emptying ([3]; xylazine 20 mg/kg used alone) was “did not alter gastric emptying”.

In the case of `CNC1(c2ccccc2Cl)CCCCC1=O` (stereo not shown) [ketamine], the gastric emptying ([3]; xylazine 20 mg/kg in combination ketamine 100 mg/kg) is reported as “did not alter gastric emptying”.

Reference: US20050070461A1, “Means and methods for altering the motility of the gastrointestinal tract” (priority 2002, published 2005)
